The target of series [1] is T1, Prostaglandin G/H synthase 1 (Homo sapiens, UniProt P23219). Description: Inhibition of COX-1 (unknown origin) in platelet rich plasma assessed as inhibition of collagen-induced platelet aggregation up to 3 uM incubated for 5 mins prior to collagen challenge measured for 5 mins by aggregometric analysis.
Series [2] has as its target T1, Prostaglandin G/H synthase 1. The experiment in a line: Inhibition of COX-1 (unknown origin) in platelet rich plasma assessed as inhibition of collagen-induced platelet aggregation at 10 uM incubated for 5 mins prior to collagen challenge measured for 5 mins by aggregometric analysis relative to vehicle-treated control.
Series [3] concerns the target Prostaglandin G/H synthase 2 (Homo sapiens) (UniProt P35354). The experiment in a line: Inhibition of COX-2 in human MDA-MB-231 cells assessed as inhibition of arachidonic acid-induced PGE2 formation at 100 uM incubated for 30 mins prior to arachidonic acid challenge measured after 30 mins by radioimmunoassay relative to vehicle-treated control.
Series [4] deals with T1, Prostaglandin G/H synthase 1. The experiment in a line: Inhibition of COX-1 (unknown origin) in platelet rich plasma assessed as inhibition of collagen-induced platelet aggregation incubated for 5 mins prior to collagen challenge measured for 5 mins by aggregometric analysis.
Series [5] shares this target. Description: Inhibition of COX-1 (unknown origin) in platelet rich plasma assessed as inhibition of arachidonic acid-induced platelet aggregation up to 3 uM incubated for 5 mins prior to arachidonic acid challenge measured for 5 mins by aggregometric analysis.
The nature of series [6]: Binding affinity to human alpha1-acid glycoprotein by HPLC analysis relative to control. It counts as ADME. Conditions: pooled result: one value given for 2 cell lines, strains, targets or settings.
The target of series [7] is T2, Prostaglandin G/H synthase 2 (Homo sapiens) (UniProt P35354).
T2 sequence (whole entry): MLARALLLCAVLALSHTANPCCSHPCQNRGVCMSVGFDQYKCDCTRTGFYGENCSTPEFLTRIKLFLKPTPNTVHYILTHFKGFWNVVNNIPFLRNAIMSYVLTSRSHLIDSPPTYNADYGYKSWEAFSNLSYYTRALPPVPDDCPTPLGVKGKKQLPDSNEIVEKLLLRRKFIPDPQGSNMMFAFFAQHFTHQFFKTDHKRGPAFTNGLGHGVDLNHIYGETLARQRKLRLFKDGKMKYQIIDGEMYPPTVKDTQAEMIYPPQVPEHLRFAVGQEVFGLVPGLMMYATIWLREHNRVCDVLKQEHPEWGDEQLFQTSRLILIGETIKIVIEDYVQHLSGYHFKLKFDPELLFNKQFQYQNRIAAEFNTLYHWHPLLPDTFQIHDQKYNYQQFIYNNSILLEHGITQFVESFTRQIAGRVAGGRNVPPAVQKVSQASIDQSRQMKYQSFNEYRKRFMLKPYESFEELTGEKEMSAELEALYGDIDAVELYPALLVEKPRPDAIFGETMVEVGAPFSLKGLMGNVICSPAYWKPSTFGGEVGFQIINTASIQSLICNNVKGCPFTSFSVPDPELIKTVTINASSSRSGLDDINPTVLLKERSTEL
Description: Inhibition of COX-2 in human whole blood assessed as inhibition of LPS-induced plasma PGE2 level at 1000 uM by radioimmunoassay relative to control.

Series [8] deals with Prostaglandin G/H synthase 2 (Homo sapiens) (UniProt P35354). The experiment in a line: Reversible inhibition of COX-2 in human MDA-MB-231 cells assessed as inhibition of arachidonic acid-induced PGE2 formation at 100 uM incubated for 30 mins followed by compound washout measured 30 mins post arachidonic acid challenge by radioimmunoassay.
In series [9] the target is T1, Prostaglandin G/H synthase 1. The experiment in a line: Inhibition of COX-1 (unknown origin) in platelet rich plasma assessed as inhibition of arachidonic acid-induced platelet aggregation at 10 uM incubated for 5 mins prior to arachidonic acid challenge measured for 5 mins by aggregometric analysis relative to vehicle-treated control.
Series [10] shares this target. Description: Inhibition of COX-1 (unknown origin) in platelet rich plasma assessed as inhibition of collagen-induced TXB2 formation incubated for 5 mins prior to collagen challenge measured for 5 mins by aggregometric analysis.
In series [11] the test system is Mus musculus. Description: Antithrombotic activity in C57BL/6 mouse assessed as reduction of 6-keto-PGF1alpha level in urine at 20 mg/kg, po administered 3 days measured for 24 hrs post third dose. It counts as functional, organism-based. On the set-up: dose 20 mg/kg.
Series [12] concerns the target COX-1/COX-2 (Homo sapiens) (UniProt P35354+P23219). Description: Selectivity ratio of IC50 for COX-2 in human whole blood to COX-1 in human whole blood. Format: tissue-based.
Series [13] addresses T1, Prostaglandin G/H synthase 1. Description: Inhibition of COX-1 in human THP1 cells assessed as inhibition of arachidonic acid-induced TXB2 formation at 100 uM incubated for 30 mins prior to arachidonic acid challenge measured after 30 mins by radioimmunoassay relative to vehicle-treated control. Format: cell-based. To be noted: THP-1.
The target is the same in series [14]. Description: Inhibition of COX-1 (unknown origin) in platelet rich plasma assessed as inhibition of arachidonic acid-induced TXB2 formation incubated for 5 mins prior to arachidonic acid challenge measured for 5 mins by aggregometric analysis.
Series [15] relates to Mus musculus. The experiment in a line: Antithrombotic activity in C57BL/6 mouse assessed as reduction of 11-dehydro-TXB2 level in urine at 20 mg/kg, po administered 3 days measured for 24 hrs post third dose relative to vehicle-treated control. Format: functional. Further details: scale not given: the % may be the effect or the level left.
Series [16] has as its target T1, Prostaglandin G/H synthase 1. The experiment in a line: Inhibition of COX-1 in human washed platelet assessed as inhibition of 10 uM arachidonic acid-induced TXB2 formation at 0.01 to 100 uM incubated for 25 mins prior to arachidonic acid challenge measured after 30 mins by radioimmunoassay.
Series [17] shares this target. To be noted: at 0.01 to 100 µM.
The target is the same in series [18]. The experiment in a line: Irreversible inhibition of COX-1 in human THP1 cells assessed as inhibition of arachidonic acid-induced TXB2 formation at 100 uM incubated for 30 mins followed by compound washout measured 30 mins post arachidonic acid challenge by radioimmunoassay. Conditions: THP-1. It counts as cell-based.

Structures are written as SMILES. Active and inactive are the calls of the source. The rule behind the calls is not given here.

Usually inhibition stands for the drop in the measured response relative to a control, in per cent. In general, IC50 refers to the concentration needed to halve the response being measured.

T1 sequence (P23219 whole entry): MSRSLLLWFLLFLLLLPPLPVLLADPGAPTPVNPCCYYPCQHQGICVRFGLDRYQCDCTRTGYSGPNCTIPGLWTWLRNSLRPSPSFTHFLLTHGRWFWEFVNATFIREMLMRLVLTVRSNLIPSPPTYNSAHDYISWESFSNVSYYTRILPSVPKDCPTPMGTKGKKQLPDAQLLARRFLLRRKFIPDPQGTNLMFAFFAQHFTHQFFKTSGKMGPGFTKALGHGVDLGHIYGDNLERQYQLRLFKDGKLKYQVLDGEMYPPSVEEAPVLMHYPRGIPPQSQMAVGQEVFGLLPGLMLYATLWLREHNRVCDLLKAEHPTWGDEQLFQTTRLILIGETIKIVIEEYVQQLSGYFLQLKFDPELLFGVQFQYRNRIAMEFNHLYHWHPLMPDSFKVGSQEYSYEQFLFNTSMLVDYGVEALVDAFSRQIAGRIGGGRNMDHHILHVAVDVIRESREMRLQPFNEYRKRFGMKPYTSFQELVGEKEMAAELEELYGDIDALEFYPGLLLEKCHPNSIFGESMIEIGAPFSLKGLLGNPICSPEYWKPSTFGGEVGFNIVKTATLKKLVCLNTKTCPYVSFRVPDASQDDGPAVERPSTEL

Turning to `FC(F)(F)c1onc(-c2ccc(Cl)o2)c1-c1ccccc1`, the inhibition result in series [1] and in series [5] was “inactive” in each case. Also, the inhibition in series [2] is 72%; in series [3], 70%; in series [4], “Dose-dependent effect”; in [7], 49%; in [9], 99.2%; in series [10], “Dose-dependent effect”. Besides, the values for the inhibition in series [13] and in [14] were greater than 90% and “Dose-dependent effect”, respectively. In addition, the Activity in [6] turned out to be 94.3%; in the series on Mus musculus [15], 70%. The inhibition entry in series [8], in series [16], in series [17] and in series [18] was “Active” throughout. The IC50 in series [10] is 10 µM; in series [14], 3.7 µM. For the same molecule, the result in the series on Mus musculus [11] was inactive. The Ratio IC50 in [12] was greater than 123.

These data come from ChEMBL document CHEMBL2380195 (J Med Chem, 2013).
